Laboratory results as given in patent US20260344661A1, “USE OF AN ALKYLETHER SULFATE FOR IMPROVING THE EFFICACY OF HERBICIDES” (BASF SE, priority 2022, published 2026).

Key:
ABUTH (velvetleaf) = experiment: Greenhouse post-emergence weed control, damage vs untreated (ABUTH); type: in vivo, Abutilon theophrasti; conditions: 20 DAT, adjuvant g ai/ha: none (CE1-A)
Method: (§1) A greenhouse study was conducted to evaluate the effect of the alkylether sulfates of formula (I) and other adjuvants on the weed control efficacy of glufosinate. Seedlings of grass plants (AVEFA, ECHCG, DIGSA and SETVI) and broadleaf weeds (KCHSC, CHEAL, AMAPA, AMATA and ABUTH) were grown to a height of 3 to 20 cm, depending on the plant habit in 10×10×10 cm pots filled with sandy planting soil (Limburgerhof soil). The weeds were treated with postemergence applications of glufosinate ammonium at the respective application rates given in the following tables, either alone or combined with various amounts of the respective adjuvants.
(§2) For this, the herbicide formulation and the respective adjuvant were introduced into tap water to obtain the spray liquor. […] The spray liquor was then applied to the plant a spray volume of 200 l/ha using a sprayer (XR Teejet 110015).
[…] During this time, the plants were tended, and their response to the treatments with active compound was evaluated.
(§3) The evaluation for the damage caused by the chemical compositions was carried out using a scale from 0 to 100%, compared to the untreated control plants. Here, 0 means no damage and 100 means complete destruction of the plants.
(§4) The plants used in the greenhouse experiments belonged to the following species: […]

ECHCG (barnyardgrass) = experiment: Greenhouse post-emergence weed control, damage vs untreated (ECHCG); type: in vivo, Echinochloa crus-galli; conditions: adjuvant g ai/ha: none (CE1-A)
Method: as §1, §2
(§5) The test period extended over 21 days. During this time, the plants were tended, and their response to the treatments with active compound was evaluated.
as §3
(§6) The plants used in the greenhouse experiments belonged to the following species:
(§7) The results are summarized in the following tables 1 to 15 that show the applied doses of the individual actives as gram of active ingredient per hectare (g ai/ha), the herbicidal activity of the individual […]

[1] = tested on: ØBLV (average value of KCHSC, CHEAL, AMAPA, AMATA and ABUTH); experiment: Greenhouse post-emergence weed control, average over broadleaf weeds (ØBLV); type: in vivo; conditions: 20 DAT, adjuvant g ai/ha: none (CE1-A)
Method: as §1, §2, §5, §3, §6
(§8) The results are summarized in the following tables 1 to 15 that show the applied doses of the individual actives as gram of active ingredient per hectare (g ai/ha), the herbicidal activity of the individual actives and of their combinations in post-emergence application assessed 14 and 28 day after treatment (DAT), respectively.

HORVW (winter barley) = experiment: Greenhouse post-emergence weed control, damage vs untreated (HORVW); type: in vivo, Hordeum vulgare; conditions: 20 DAT, adjuvant g ai/ha: none (CE1-A)
KCHSC (kochia) = experiment: Greenhouse post-emergence weed control, damage vs untreated (KCHSC); type: in vivo, Kochia scoparia; conditions: 20 DAT, adjuvant g ai/ha: none (CE1-A)
Method: as §1, §2, §5, §3, §4

[2] = tested on: Øgras (average value of AVEFA, ECHCG, DIGSA and SETVI); experiment: Greenhouse post-emergence weed control, average over grasses (Øgras); type: in vivo; conditions: adjuvant g ai/ha: none (CE1-A)
Method: as §1, §2, §5, §3, §6, §7

DIGSA (large crabgrass) = experiment: Greenhouse post-emergence weed control, damage vs untreated (DIGSA); type: in vivo, Digitaria sanguinalis; conditions: 20 DAT, adjuvant g ai/ha: none (CE1-A)
Method: as §1, §2, §5, §3, §4

AMAPA (palmer amaranth) = experiment: Greenhouse post-emergence weed control, damage vs untreated (AMAPA); type: in vivo, Amaranthus palmeri; conditions: 20 DAT, adjuvant g ai/ha: none (CE1-A)
Method: as §1, §2, §5, §3, §6, §8

AVEFA (wild oat) = experiment: Greenhouse post-emergence weed control, damage vs untreated (AVEFA); type: in vivo, Avena fatua; conditions: adjuvant g ai/ha: none (CE1-A)
Method: as §1, §2, §5, §3, §6, §7

[3] = tested on: AMATA (common water hemp); experiment: Greenhouse post-emergence weed control, damage vs untreated (AMATA); type: in vivo, Amaranthus tuberculatus; conditions: 20 DAT, adjuvant g ai/ha: none (CE1-A)
Method: as §1, §2, §5, §3, §6, §8

CHEAL (lambsquarter) = experiment: Greenhouse post-emergence weed control, damage vs untreated (CHEAL); type: in vivo, Chenopodium album; conditions: adjuvant g ai/ha: none (CE1-A)
Method: as §1, §2, §5, §3, §6, §7

SETVI (green foxtail) = experiment: Greenhouse post-emergence weed control, damage vs untreated (SETVI); type: in vivo, Setaria viridis; conditions: adjuvant g ai/ha: none (CE1-A)
Method: as §1, §2, §5, §3, §6, §7

[4] = 75 g ai/ha glufosinate rac., 56 (IE1-A), 62.125 (IE1-B), 51.625 (CE2-A, CE2-B), 55.75 (CE2-C), 66.75 (CE2-D), 103.25 (CE2-E)
[5] = 150 g ai/ha glufosinate rac., 112 (IE1-A), 124.25 (IE1-B), 103.25 (CE2-A, CE2-B), 111.5 (CE2-C), 133.5 (CE2-D), 206.5 (CE2-E)
[6] = 300 g ai/ha glufosinate rac., 223 (IE1-A, CE2-C), 248.5 (IE1-B), 206.5 (CE2-A, CE2-B), 267 (CE2-D), 413 (CE2-E)
[7] = 600 g ai/ha glufosinate rac., 446 (IE1-A, CE2-C), 497 (IE1-B), 413 (CE2-A, CE2-B), 534 (CE2-D), 826 (CE2-E)

Q: Which results are given for `CP(=O)(O)CCC(N)C(=O)O.N` (racemic) [CE1-A, ammonium (2RS)-2-amino-4-(methylphosphinato)butyric acid]?
A: % activity (ABUTH (velvetleaf); [4]): 5%; % activity (ABUTH (velvetleaf); [5]): 20%; % activity (ABUTH (velvetleaf); [6]): 75%; % activity (ABUTH (velvetleaf); [7]): 60%; % activity (ECHCG (barnyardgrass); [4]): 0%; % activity (ECHCG (barnyardgrass); [5]): 0%; % activity (ECHCG (barnyardgrass); [6]): 0%; % activity (ECHCG (barnyardgrass); [7]): 0%; % activity (ØBLV) [1, 4]: 15%; % activity (ØBLV) [1, 5]: 43%; % activity (ØBLV) [1, 6]: 55%; % activity (ØBLV) [1, 7]: 57%; % activity (HORVW (winter barley); [4]): 0%; % activity (HORVW (winter barley); [5]): 0%; % activity (HORVW (winter barley); [6]): 0%; % activity (KCHSC (kochia); [4]): 0%; % activity (KCHSC (kochia); [5]): 0%; % activity (KCHSC (kochia); [6]): 5%; % activity (KCHSC (kochia); [7]): 20%; % activity (Øgras) [2, 4]: 21%; % activity (Øgras) [2, 5]: 24%; % activity (Øgras) [2, 6]: 40%; % activity (Øgras) [2, 7]: 51%; % activity (DIGSA (large crabgrass); [4]): 0%; % activity (DIGSA (large crabgrass); [5]): 0%; % activity (DIGSA (large crabgrass); [6]): 50%; % activity (DIGSA (large crabgrass); [7]): 80%; % activity (AMAPA (palmer amaranth); [4]): 50%; % activity (AMAPA (palmer amaranth); [5]): 98%; % activity (AMAPA (palmer amaranth); [6]): 98%; % activity (AMAPA (palmer amaranth); [7]): 98%; % activity (AVEFA (wild oat); [4]): 5%; % activity (AVEFA (wild oat); [5]): 0%; % activity (AVEFA (wild oat); [6]): 10%; % activity (AVEFA (wild oat); [7]): 25%; % activity [3, 4]: 20%; % activity [3, 5]: 98%; % activity [3, 6]: 85%; % activity [3, 7]: 98%; % activity (CHEAL (lambsquarter); [4]): 0%; % activity (CHEAL (lambsquarter); [5]): 0%; % activity (CHEAL (lambsquarter); [6]): 10%; % activity (CHEAL (lambsquarter); [7]): 10%; % activity (SETVI (green foxtail); [4]): 80%; % activity (SETVI (green foxtail); [5]): 95%; % activity (SETVI (green foxtail); [6]): 98%; % activity (SETVI (green foxtail); [7]): 98%
